The values that follow come from the NIST ThermoML archive (doi:10.1021/je9008206).

The conditions of series [1]: Crystal; DTA.
Series [2] in a line: Molar enthalpy of transition or fusion. The settings on record: Crystal; DSC.

± gives the expanded uncertainty stated by the source.

Regarding `O=C1OC(=O)c2c(Cl)cccc21` [3-chlorophthalic anhydride], the Normal melting temperature in series [1] was 124.80 ± 0.53 °C. Besides, the “Molar enthalpy of transition or fusion” value in series [2] was found to be 3.19 ± 0.206 kcal/mol.
For `O=C1OC(=O)c2cc(Cl)ccc21` [4-chlorophthalic anhydride], in that order: 94.20 ± 0.53 °C and 7.9 ± 0.239 kcal/mol.
